Assay results published in US20050287195A1, “Transdermal drug delivery systems” (priority 1998, published 2005).

Test: In vitro skin permeation with human skin, Franz-type diffusion cells
Format: in vitro ADME
Settings: solvent/skin penetration enhancer DEET and/or Crotamiton, concentration below saturation, receptor at 32° C.
Procedure: Dermatomed human skin sections were mounted onto the Franz cells and transdermal drug delivery systems mounted on tape backings (1.5 cm^2) were placed on the stratum corneal surface of the skin. Each Franz cell contained 7 ml of ethanol phosphate buffered saline as the receptor medium, maintained at 32° C. At predetermined time intervals 0.7 ml of the receptor solution was sampled and an equal amount replaced. The samples were analysed by High Pressure Liquid Chromatography.

skin mass transport	SMILES
enhanced	C[C@]12CC[C@@H]3c4ccc(O)cc4CC[C@H]3[C@@H]1CC[C@@H]2O [Estradiol]
enhanced	C#C[C@]1(OC(C)=O)CC[C@H]2[C@@H]3CCC4=CC(=O)CC[C@@H]4[C@H]3CC[C@@]21C [Norethisterone Acetate]
